Where “and” joins values, the source holds several entries; their conditions need not be identical. Equal values may be shown once.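 Five concentrations, 48 hours, 96-well plates. Abbreviation: GI50, concentration required for 50% inhibition of growth. The concentration for full growth arrest is given as TGI.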
Legend:
Assay in all cases: NCI tumour cell line growth inhibition, 48 h
NCI-H226 lung = system: NCI-H226 lung
HOP-92 NSCLC = system: HOP-92 NSCLC
CCRF-CEM leukemia = system: CCRF-CEM leukemia
SN12C renal = system: SN12C renal
EKVX NSCLC = system: EKVX NSCLC
SR leukemia = system: SR leukemia
HS 578T breast = system: HS 578T breast
KM12 colon = system: KM12 colon
SW-620 colon = system: SW-620 colon
HCC-2998 colon = system: HCC-2998 colon

Row | Compound | TGI (NCI-H226 lung) | TGI (HOP-92 NSCLC) | TGI (CCRF-CEM leukemia) | TGI (SN12C renal) | TGI (EKVX NSCLC) | TGI (SR leukemia) | TGI (HS 578T breast) | TGI (KM12 colon) | TGI (SW-620 colon) | TGI (HCC-2998 colon) | GI50 (HOP-92 NSCLC) | GI50 (EKVX NSCLC) | GI50 (KM12 colon) | GI50 (SW-620 colon) | GI50 (HCC-2998 colon) | GI50 (NCI-H226 lung) | GI50 (CCRF-CEM leukemia) | GI50 (SR leukemia) | GI50 (HS 578T breast)
1 | COc1cc(C2c3cc4c(cc3OC(NNc3ccccc3)C2C)OCO4)cc(OC)c1O (centres undefined) | 14.6 µM | 24.5 µM | 21.3 µM | 4.63 µM | 69.9 µM | 29.7 µM | 12 µM | 12 µM | 21 µM | 2.87 µM | – | – | – | – | – | – | – | – | –
2 | NCCN(CCN)/[N+]([O-])=N/O | > 100 µM | > 100 µM | > 100 µM | > 100 µM | > 100 µM | > 100 µM | > 100 µM | > 100 µM | > 100 µM | > 100 µM | – | – | – | – | – | – | – | – | –
3 | NC(CS)C(=O)NCCNc1ccc(NCCNC(=O)C(N)CS)c2c1C(=O)c1c(O)ccc(O)c1C2=O (centres undefined) | 0.0616 µM and 0.0476 µM | 0.195 µM and 1.03 µM | 0.517 µM | 0.0822 µM and 0.0691 µM | 1.05 µM and 0.274 µM | 0.232 µM | 0.615 µM | 0.874 µM and 0.264 µM | 1.24 µM and 1.01 µM | 1.13 µM and 0.822 µM | 0.0416 µM | 0.0538 µM | 0.0393 µM | 0.0218 µM | 0.196 µM | – | – | – | –
4 | O=[N+]([O-])c1ccc2c(N=Nc3ccc4ccccc4c3O)c(O)cc(S(=O)(=O)O)c2c1 | 52.5 µM | > 100 µM | 22 µM | > 100 µM | > 82.1 µM | > 69.4 µM | > 100 µM | > 100 µM | > 100 µM | > 100 µM | – | – | – | – | – | – | – | – | –
5 | O=C1C(c2c(O)[nH]c3ccc(I)cc23)=Nc2ccccc21 | 6.94 µM | 12.4 µM | > 100 µM | > 74.1 µM | > 49.4 µM | > 100 µM | > 100 µM | > 100 µM | > 56.7 µM | > 22.9 µM | – | – | – | – | – | – | – | – | –
6 | CC(=O)CC12NC(=O)N(C)N=C1N(C)C(=O)N(C)C2=O (centres undefined) | > 100 µM | > 100 µM | > 100 µM | > 100 µM | > 100 µM | > 100 µM | > 100 µM | > 100 µM | > 100 µM | > 100 µM | – | – | – | – | – | – | – | – | –
7 | N#Cc1c(O)c(C=O)c(=O)n2c1[nH]c1ccccc12 | > 100 µM | > 100 µM | > 100 µM | > 100 µM | > 100 µM | > 100 µM | > 100 µM | > 100 µM | > 100 µM | > 100 µM | – | – | – | – | – | – | – | – | –
8 | O=C1[C@H](O)[C@@H]2CCC[C@@]23CCCN13 | > 100 µM | > 100 µM | > 100 µM | > 100 µM | > 100 µM | > 100 µM | > 100 µM | > 100 µM | > 100 µM | > 100 µM | – | – | – | – | – | – | – | – | –
9 | O=C1CCc2ccccc2O1 | > 100 µM | > 100 µM | > 100 µM | > 100 µM | > 100 µM | > 100 µM | > 100 µM | > 100 µM | > 100 µM | > 100 µM | – | – | – | – | – | – | – | – | –
10 | CC1(C)OC2OC(C(=O)c3ccccc3)C3OC(C)(C)OC3C2O1 (centres undefined) | > 100 µM | > 100 µM | > 100 µM | > 100 µM | > 100 µM | > 100 µM | > 100 µM | > 100 µM | > 100 µM | > 100 µM | – | – | – | – | – | – | – | – | –
11 | CON(C(=O)OC(C)(C)C)c1ccccc1 | > 100 µM | > 100 µM | > 100 µM | – | > 100 µM | > 100 µM | > 100 µM | > 100 µM | > 100 µM | > 100 µM | – | – | – | – | – | – | – | – | –
12 | COc1cc(/C=C/C2=NN(c3cccc(S(=O)(=O)O)c3)C3(C2)SCC(=O)N3c2nc3ccccc3s2)cc(OC)c1OC (centres undefined) | > 100 µM | > 100 µM | 75.1 µM | > 100 µM | > 100 µM | 66.2 µM | > 100 µM | > 100 µM | > 100 µM | > 100 µM | – | – | – | – | – | – | – | – | –
13 | CC(=O)OC12OC(C)(C3C(=O)N(c4ccccc4)C(=O)C31)N(c1ccccc1)C2=O (centres undefined) | > 100 µM | > 100 µM | > 100 µM | > 100 µM | > 100 µM | > 100 µM | > 100 µM | > 100 µM | > 100 µM | > 100 µM | – | – | – | – | – | – | – | – | –
14 | O=C1c2c(F)c(F)c(F)c(F)c2SC2=Nc3cccc4cccc(c34)N12 | 28.7 µM | 6.7 µM | > 25.1 µM | 10.4 µM | 26.5 µM | 15.2 µM | 7.73 µM | 10.2 µM | 12 µM | 28.5 µM | – | – | – | – | – | – | – | – | –
15 | N#CCN1CCCN(CC#N)CCN(CC#N)CCCN(CC#N)CC1 | > 100 µM | > 100 µM | > 100 µM | > 100 µM | – | > 100 µM | > 100 µM | > 100 µM | > 100 µM | > 100 µM | – | – | – | – | – | – | – | – | –
16 | O=c1cc(NNc2cccc(F)c2)[nH]c(=S)[nH]1 | > 100 µM | 99.5 µM | – | > 100 µM | > 100 µM | > 100 µM | > 100 µM | > 100 µM | > 100 µM | > 100 µM | – | – | – | – | – | – | – | – | –
17 | Cc1sc2nc3n(c(=O)c2c1C)N=C(c1ccccc1)CS3 | > 100 µM | > 100 µM | > 100 µM | > 100 µM | > 100 µM | > 100 µM | > 100 µM | > 100 µM | > 100 µM | > 100 µM | – | – | – | – | – | – | – | – | –
18 | CCN(CCN(CC)C(=O)NC)C(=O)NC | > 100 µM | > 100 µM | > 100 µM | > 100 µM | > 100 µM | > 100 µM | > 100 µM | – | > 100 µM | > 100 µM | – | – | – | – | – | – | – | – | –
19 | COc1cc(/C=C/c2ccc(S(N)(=O)=O)cc2)cc(OC)c1 | 38.1 µM | 43.9 µM | 52.3 µM | 55.2 µM | 86 µM | 38 µM | 48.5 µM | 57.6 µM | – | 38.1 µM | 15 µM | – | 20.8 µM | – | – | 12.3 µM | 19.9 µM | 19.7 µM | 20.1 µM
20 | COC(=O)CN(CC1O[C@@H]2OC(C)(C)O[C@@H]2C1NC(C)=O)C(=O)OCc1ccccc1 (some centres undefined) | > 100 µM | > 100 µM | – | > 100 µM | > 100 µM | > 100 µM | > 100 µM | > 100 µM | > 100 µM | > 100 µM | – | – | – | – | – | – | – | – | –
21 | CCOC(=O)C(NC(=O)c1ccccc1)(Nc1ccc(S(=O)(=O)Nc2ccc(OC)nn2)cc1)C(F)(F)F (centres undefined) | > 100 µM | > 100 µM | > 100 µM | > 100 µM | > 100 µM | > 100 µM | > 100 µM | > 100 µM | > 100 µM | > 100 µM | – | – | – | – | – | – | – | – | –
22 | CC1(C)OC2[C@@H](CO[C@@]3([C@H]4OC(C)(C)O[C@@H]4CO)OC(C)(C)O[C@@H]23)O1 (some centres undefined) | > 100 µM | > 100 µM | > 100 µM | > 100 µM | > 100 µM | > 100 µM | > 100 µM | > 100 µM | > 100 µM | > 100 µM | – | – | – | – | – | – | – | – | –
23 | Cc1cc2c(cc1-c1cc3c(cc1C)C(C(C)C)=C(O)C(=O)/C3=C\Nc1ccccn1)/C(=C/Nc1ccccn1)C(=O)C(O)=C2C(C)C | 77.8 µM | > 100 µM | > 100 µM | > 100 µM | > 100 µM | > 100 µM | > 100 µM | 73.6 µM | > 100 µM | 60.2 µM | – | – | – | – | – | – | – | – | –
24 | O=C(NCCCc1cn[nH]c(=O)n1)c1cccc2nc3ccccc3nc12 | > 100 µM | > 100 µM | > 100 µM | > 100 µM | > 100 µM | > 100 µM | > 100 µM | > 100 µM | > 100 µM | > 100 µM | – | – | – | – | – | – | – | – | –
25 | Cc1ccc(S(=O)(=O)NCCCSCCO)cc1 | > 100 µM | > 100 µM | > 100 µM | > 100 µM | – | > 100 µM | > 100 µM | > 100 µM | > 100 µM | > 100 µM | – | – | – | – | – | – | – | – | –
26 | O=C1C(=O)N(C23CC4CC(CC(C4)C2)C3)C(=S)N1c1ccccc1 | > 100 µM | > 100 µM | > 100 µM | > 100 µM | > 100 µM | > 100 µM | > 100 µM | > 100 µM | > 100 µM | > 100 µM | – | – | – | – | – | – | – | – | –
27 | CCOC(=O)c1cc([N+](=O)[O-])cc([N+](=O)[O-])c1Sc1ncnc2nc[nH]c12 | > 100 µM | 2.52 µM | 6.84 µM | 5.34 µM | 13.1 µM | > 100 µM | 71.2 µM | 18.1 µM | > 100 µM | 30.2 µM | – | – | – | – | – | – | – | – | –
